From ChEMBL document CHEMBL1121607, “A novel opioid receptor site directed alkylating agent with irreversible narcotic antagonistic and reversible agonistic activities” (J Med Chem, 1980)

Species on record: Cavia porcellus
Experiment: Tested for potent reversible agonist activity on electrically stimulated guinea pig ileal longitudinal muscle preparation
Assay type: functional, organism-based
Settings: Muscle tissue

Structure (SMILES) | IC50 [µM]
COC(=O)/C=C/C(=O)N[C@@H]1CC[C@@]2(O)[C@H]3Cc4ccc(O)c5c4[C@@]2(CCN3CC2CC2)[C@H]1O5 | 0.0048
COC(=O)/C=C/C(=O)N[C@@H]1CC[C@@]2(O)C3Cc4ccc(O)c5c4C2(CCN3C)[C@H]1O5 (stereo partly drawn) | 0.027
O=C1CC[C@@]2(O)[C@H]3Cc4ccc(O)c5c4[C@@]2(CCN3CC2CC2)[C@H]1O5 [NALTREXONE] | 0.05
